Laboratory results from patent US20170157301A1, “LEOLIGIN DERIVATIVES AS SMOOTH MUSCLE CELL PROLIFERATION INHIBITORS” (TECHNISCHE UNIVERSITAET WIEN, priority 2014, published 2017).

Tested on: SMCs in relation to ECs
Experiment: activity ratio: efficiency towards SMCs / efficiency towards ECs
Type: cell-based
Conditions: activity ratio class; order in Table 1 follows the calculated values
Procedure: For determination of vascular SMC proliferation, 0.5×10^4 viable rat aortic SMCs per well were seeded in SMC growth medium (DMEM/F12 medium with 20% serum, 30 μg/mL Gentamicin and 15 ng/mL Amphotericin) in 96-well plates. 24 h later, the medium was removed, the cells were washed once with SMC starvation medium (DMEM/F12 medium with 0.1% serum, 0.2% BSA, 30 μg/mL Gentamicin and 15 ng/mL Amphotericin) and incubated in starvation medium for further 24 h.
The quiescent cells were then pretreated for 30 min with the test compounds and induced to proliferate with 20 ng/mL platelet-derived growth factor (PDGF). Unstimulated cells were utilized for normalization and estimation of the basal level of proliferation. The final concentration of the solvent vehicle, dimethyl sulfoxide (DMSO), was the same (0.1%) in all wells. 48 h later, the SMC proliferation was quantified by resazurin dye conversion for 2 h as previously described (H. Joa et al., J. Nat. Prod. 74(6), 1513-6 (2011)).
For determination of endothelial cell proliferation, 0.5×10^4 HUVECtert immortalized human umbilical vein endothelial cells (H. B. Schiller et al., Mol. Biol. Cell. 20(3), 745-756 (2009)) were seeded in 96-well plates for 24 h in HUVEC Complete Medium (EBM™ growth medium supplemented with 10% fetal bovine serum, EBM™ SingleQuots (Lonza, Basel, Switzerland), 100 U/mL benzylpenicillin, 100 μg/mL streptomycin, and 1% amphotericin). Afterwards, the medium was exchanged with fresh HUVEC Complete Medium and cells were treated with the indicated compounds for 48 h. After the end of the incubation period, the medium was removed, the cells were washed once with 200 μL/well PBS, and treated with 150 μL HUVEC Complete Medium containing 10 μg/mL resazurin. 2 h later, the fluorescence was measured at a wavelength of 580 nm, with excitation wavelength 535 nm in a 96-well plate reader (Tecan GENios Pro; Tecan Group Ltd., Mannedorf, Switzerland).
In every case, the percentage of viable cells was subtracted from 1, in order to obtain a measure of efficiency of the test compounds towards each particular type of cells, and subsequently, the efficiency quotient towards SMCs and ECs was calculated and taken as the “activity ratio” and thus as a measure of selective efficiency of each test compound towards SMCs in relation to ECs. For example, the synthetic Leoligin with the bio ID 2418 prepared in Comparative Example 27 as compound 10-22 gave the following results:
Due to the usual fluctuations in determining surviving cells, which amount to approximately ±10%, and due to the relatively strong resulting fluctuations in calculating quotients—especially if the inhibitory effect of said novel compounds towards ECs is very poor—said threshold value of 1.50 for the activity ratio, as already mentioned above, was introduced.
In the following, a table listing every compound prepared in examples and comparative Examples for which an activity ratio (a.r.) of >1.0 was determined, is given.

SMILES | a.r. code
COc1cc([C@H]2OC[C@H](Cc3ccc(C(C)(C)C)cc3)[C@@H]2CO)cc(OC)c1OC [Comparative Example 13, ((2S,3R,4R)-4-(4-(tert-butyl)benzyl)-2-(3,4,5-trimethoxyphenyl)tetrahydrofuran-3-yl)methanol] | V (1.0 < a.r. < 1.50)
C/C=C(/C)C(=O)OC[C@H]1[C@@H](Cc2ccc(C(F)(F)F)cc2)CO[C@@H]1c1ccc(OC)c(OC)c1 [Comparative Example 24, (Z)-((2S,3R,4R)-2-(3,4-dimethoxyphenyl)-4-(4-(trifluoromethyl)benzyl)tetra-hydrofuran-3-yl)methyl 2-methylbut-2-enoate] | V (1.0 < a.r. < 1.50)
C/C=C(/C)C(=O)OC[C@H]1[C@@H](Cc2ccc(OC)c(OC)c2)CO[C@@H]1c1ccc(F)cc1 [Comparative Example 26, (Z)-((2S,3R,4R)-4-(3,4-dimethoxybenzyl)-2-(4-fluorophenyl)tetrahydrofuran-3-yl)methyl 2-methylbut-2-enoate] | V (1.0 < a.r. < 1.50)
C/C=C(/C)C(=O)OC[C@H]1[C@@H](Cc2ccc(OC)c(OC)c2)CO[C@@H]1c1ccc(OC)cc1 [Comparative Example 28, (Z)-((2S,3R,4R)-4-(3,4-dimethoxybenzyl)-2-(4-methoxyphenyl)tetrahydrofuran-3-yl)methyl 2-methylbut-2-enoate] | V (1.0 < a.r. < 1.50)
C/C=C(/C)C(=O)OC[C@H]1[C@@H](Cc2ccc(OC)cc2)CO[C@@H]1c1ccccc1 [Comparative Example 29, (Z)-((2S,3R,4R)-4-(4-methoxybenzyl)-2-phenyltetrahydrofuran-3-yl)methyl 2-methylbut-2-enoate] | V (1.0 < a.r. < 1.50)
C/C=C(/C)C(=O)OC[C@H]1[C@@H](Cc2ccc(OC)cc2)CO[C@@H]1c1ccc(F)cc1 [Comparative Example 30, (Z)-((2S,3R,4R)-2-(4-fluorophenyl)-4-(4-methoxybenzyl)tetrahydrofuran-3-yl)-methyl 2-methylbut-2-enoate] | V (1.0 < a.r. < 1.50)
C/C=C(/C)C(=O)OC[C@H]1[C@@H](Cc2ccccc2)CO[C@@H]1c1cc(OC)c(OC)c(OC)c1 [Comparative Example 31, (Z)-((2S,3R,4R)-4-benzyl-2-(3,4,5-trimethoxyphenyl)tetrahydrofuran-3-yl)-methyl 2-methylbut-2-enoate] | V (1.0 < a.r. < 1.50)
C/C=C(/C)C(=O)OC[C@H]1[C@@H](Cc2ccc(C(F)(F)F)cc2)CO[C@@H]1c1cc(OC)c(OC)c(OC)c1 [Comparative Example 32, (Z)-((2S,3R,4R)-4-(4-(trifluoromethyl)benzyl)-2-(3,4,5-trimethoxyphenyl)-tetrahydrofuran-3-yl)methyl 2-methylbut-2-enoate] | V (1.0 < a.r. < 1.50)
C/C=C(/C)C(=O)OC[C@H]1[C@@H](Cc2ccc(OC)cc2)CO[C@@H]1c1cc(OC)c(OC)c(OC)c1 [Comparative Example 33, (Z)-((2S,3R,4R)-4-(4-methoxybenzyl)-2-(3,4,5-trimethoxyphenyl)tetrahydro-furan-3-yl)methyl 2-methylbut-2-enoate] | V (1.0 < a.r. < 1.50)
C/C=C(/C)C(=O)OC[C@H]1[C@@H](Cc2ccc(C)cc2)CO[C@@H]1c1cc(OC)c(OC)c(OC)c1 [Comparative Example 34, (Z)-((2S,3R,4R)-4-(4-methylbenzyl)-2-(3,4,5-trimethoxyphenyl)tetrahydrofuran-3-yl)methyl 2-methylbut-2-enoate] | V (1.0 < a.r. < 1.50)
C/C=C(\C)C(=O)OC[C@H]1[C@@H](Cc2ccc(OC)c(OC)c2)CO[C@@H]1c1ccc(OC)c(OC)c1 [Comparative Example 35, (E)-((2S,3R,4R)-4-(3,4-dimethoxybenzyl)-2-(3,4-dimethoxyphenyl)tetrahydro-furan-3-yl)methyl 2-methylbut-2-enoate] | V (1.0 < a.r. < 1.50)
COc1ccc(C[C@H]2CO[C@H](c3ccc(OC)c(OC)c3)[C@H]2COC(=O)C2CCCC2)cc1OC [Comparative Example 36, ((2S,3R,4R)-4-(3,4-dimethoxybenzyl)-2-(3,4-dimethoxyphenyl)tetrahydrofuran-3-yl)methyl cyclopentanecarboxylate] | V (1.0 < a.r. < 1.50)
COc1ccc(C[C@H]2CO[C@H](c3ccc(OC)c(OC)c3)[C@H]2COC(=O)C2CCCCC2)cc1OC [Comparative Example 37, ((2S,3R,4R)-4-(3,4-dimethoxybenzyl)-2-(3,4-dimethoxyphenyl)tetrahydrofuran-3-yl)methyl cyclohexanecarboxylate] | V (1.0 < a.r. < 1.50)
COc1ccc(C[C@H]2CO[C@H](c3ccc(OC)c(OC)c3)[C@H]2COC(=O)c2ccc3ccccc3c2)cc1OC [Comparative Example 38, ((2S,3R,4R)-4-(3,4-dimethoxybenzyl)-2-(3,4-dimethoxyphenyl)tetrahydrofuran-3-yl)methyl 2-naphthoate] | V (1.0 < a.r. < 1.50)
COc1cc([C@H]2OC[C@H](Cc3ccc(C)cc3)[C@@H]2COC(=O)C2CCCC2)cc(OC)c1OC [Comparative Example 39, ((2S,3R,4R)-4-(4-methylbenzyl)-2-(3,4,5-trimethoxyphenyl)tetrahydrofuran-3-yl)methyl cyclopentanecarboxylate] | V (1.0 < a.r. < 1.50)
COc1ccc([C@H]2OC[C@H](Cc3ccc(C(F)(F)F)cc3)[C@@H]2COC(=O)c2ccccc2C)cc1OC [Comparative Example 40, ((2S,3R,4R)-2-(3,4-dimethoxyphenyl)-4-(4-(trifluoromethyl)benzyl)tetrahydro-furan-3-yl)methyl 2-methylbenzoate] | V (1.0 < a.r. < 1.50)
COc1ccc(C[C@H]2CO[C@H](c3ccc(OC)c(OC)c3)[C@H]2COC(=O)CC(C)C)cc1OC [Comparative Example 41, ((2S,3R,4R)-4-(3,4-dimethoxybenzyl)-2-(3,4-dimethoxyphenyl)tetrahydrofuran-3-yl)methyl 3-methylbutanoate] | V (1.0 < a.r. < 1.50)
COc1ccc(C[C@H]2CO[C@H](c3ccc(OC)c(OC)c3)[C@H]2COC(=O)CC(C)(C)C)cc1OC [Comparative Example 42, ((2S,3R,4R)-4-(3,4-dimethoxybenzyl)-2-(3,4-dimethoxyphenyl)tetrahydrofuran-3-yl)methyl 3,3-dimethylbutanoate] | V (1.0 < a.r. < 1.50)
COc1ccc(C[C@H]2CO[C@H](c3ccc(F)cc3)[C@H]2COC(=O)CC(C)(C)C)cc1OC [Comparative Example 43, ((2S,3R,4R)-4-(3,4-dimethoxybenzyl)-2-(4-fluorophenyl)tetrahydrofuran-3-yl)-methyl 3,3-dimethylbutanoate] | V (1.0 < a.r. < 1.50)
CCC(CC)C(=O)OC[C@H]1[C@@H](Cc2ccc(OC)c(OC)c2)CO[C@@H]1c1ccc(OC)c(OC)c1 [Comparative Example 44, ((2S,3R,4R)-4-(3,4-dimethoxybenzyl)-2-(3,4-dimethoxyphenyl)tetrahydrofuran-3-yl)methyl 2-ethylbutanoate] | V (1.0 < a.r. < 1.50)
COc1ccc(C[C@H]2CO[C@H](c3ccc(OC)c(OC)c3)[C@H]2COC(=O)C(C)(C)C)cc1OC [Comparative Example 45, ((2S,3R,4R)-4-(3,4-dimethoxybenzyl)-2-(3,4-dimethoxyphenyl)tetrahydrofuran-3-yl)methyl pivalate] | V (1.0 < a.r. < 1.50)
COc1ccc(C[C@H]2CO[C@H](c3cc(OC)c(OC)c(OC)c3)[C@H]2COC(=O)C2=CCCCC2)cc1OC [Comparative Example 46, ((2S,3R,4R)-4-(3,4-dimethoxybenzyl)-2-(3,4,5-trimethoxyphenyl)tetrahydro-furan-3-yl)methyl cyclohex-1-enecarboxylate] | V (1.0 < a.r. < 1.50)
COc1ccc([C@H]2OC[C@H](Cc3ccc(C(C)(C)C)cc3)[C@@H]2CO)cc1OC [Example 1, ((2S,3R,4R)-4-(4-(tert-butyl)benzyl)-2-(3,4-dimethoxyphenyl)tetrahydrofuran-3-yl)methanol] | A (a.r. ≧ 1.50)
COc1ccc([C@H]2OC[C@H](Cc3ccc(C)cc3)[C@@H]2CO)cc1OC [Example 2, ((2S,3R,4R)-2-(3,4-dimethoxyphenyl)-4-(4-methylbenzyl)tetrahydrofuran-3-yl)-methanol] | AAA (a.r. ≧ 5.0)
